Data taken from the supplement of paper PMC10307832.

Assays:
Experiment in all cases: relative viability (nuclei count vs DMSO), 5 days (fraction); higher = more cells survive
[1] = tested on: HCC-366
Summary of the method: (§1)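 Lung cancer cell lines were seeded in 1536-well plates and dosed by pin tool the next day, with either a single drug or a fixed anchor-drug dose combined with five library-drug doses (not always all listed) spaced in √10 steps. Five days later, one step fixed the cells and stained their nuclei (final 0.05% Triton X-100, 1% formaldehyde, 1 ug/ml Hoechst), and nuclei were counted on 4× images. Relative viability is the nuclei count in treated wells divided by the count in vehicle wells, and each value is the median of duplicate plates.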

[2] = tested on: NCI-H2023
Summary of the method: as §1

[3] = tested on: NCI-H460
Summary of the method: as §1

[4] = tested on: NCI-H2342
Summary of the method: as §1

[5] = tested on: LOU-NH91
Summary of the method: as §1

[6] = tested on: CAL-12T
Summary of the method: as §1

[7] = tested on: LU99A
Summary of the method: as §1

[8] = tested on: NCI-H1734
Summary of the method: as §1

[9] = tested on: SK-LU-1
Summary of the method: as §1

[10] = tested on: NCI-H441
Summary of the method: as §1

[11] = tested on: NCI-H838
Summary of the method: as §1

[12] = tested on: BEN
Summary of the method: as §1

[13] = tested on: NCI-H1975
Summary of the method: as §1

[14] = tested on: NCI-H1355
Summary of the method: as §1

[15] = tested on: NCI-H358
Summary of the method: as §1

[16] = tested on: NCI-H2085
Summary of the method: as §1

[17] = tested on: NCI-H1651
Summary of the method: as §1

[18] = tested on: NCI-H1437
Summary of the method: as §1

[19] = tested on: COR-L23
Summary of the method: as §1

[20] = tested on: NCI-H1563
Summary of the method: as §1

[21] = tested on: NCI-H1650
Summary of the method: as §1

[22] = tested on: NCI-H1793
Summary of the method: as §1

Structure (SMILES): CC(=O)O[C@@]12CO[C@@H]1C[C@H](O)[C@@]1(C)C(=O)[C@H](O)C3=C(C)[C@@H](OC(=O)[C@H](O)[C@@H](NC(=O)OC(C)(C)C)c4ccccc4)C[C@@](O)([C@@H](OC(=O)c4ccccc4)[C@H]21)C3(C)C [Docetaxel] + COc1cccc2cc(-c3nc([C@H]4CC[C@H](C(=O)O)CC4)n4ncnc(N)c34)[nH]c12 [OSI-027] (partner 0.5 µM)
- relative viability ([1]; first compound 0.0002 µM): 0.917
- relative viability ([1]; first compound 0.000632 µM): 0.553
- relative viability ([1]; first compound 0.002 µM): 0.0467
- relative viability ([1]; first compound 0.006325 µM): 0.0385
- relative viability ([1]; first compound 0.02 µM): 0.0274
- relative viability ([2]; first compound 0.0002 µM): 0.341
- relative viability ([2]; first compound 0.000632 µM): 0.339
- relative viability ([2]; first compound 0.002 µM): 0.131
- relative viability ([2]; first compound 0.006325 µM): 0.0963
- relative viability ([2]; first compound 0.02 µM): 0.0554
- relative viability ([3]; first compound 0.0002 µM): 0.645
- relative viability ([3]; first compound 0.000632 µM): 0.238
- relative viability ([3]; first compound 0.002 µM): 0.0745
- relative viability ([3]; first compound 0.006325 µM): 0.0177
- relative viability ([3]; first compound 0.02 µM): 0.0139
- relative viability ([4]; first compound 0.0002 µM): 0.592
- relative viability ([4]; first compound 0.000632 µM): 0.609
- relative viability ([4]; first compound 0.002 µM): 0.502
- relative viability ([4]; first compound 0.006325 µM): 0.46
- relative viability ([4]; first compound 0.02 µM): 0.423
- relative viability ([5]; first compound 0.0002 µM): 0.698
- relative viability ([5]; first compound 0.000632 µM): 0.733
- relative viability ([5]; first compound 0.002 µM): 0.466
- relative viability ([5]; first compound 0.006325 µM): 0.344
- relative viability ([5]; first compound 0.02 µM): 0.3
- relative viability ([6]; first compound 0.0002 µM): 0.44
- relative viability ([6]; first compound 0.000632 µM): 0.272
- relative viability ([6]; first compound 0.002 µM): 0.186
- relative viability ([6]; first compound 0.02 µM): 0.111
- relative viability ([7]; first compound 0.0002 µM): 0.293
- relative viability ([7]; first compound 0.002 µM): 0.29
- relative viability ([7]; first compound 0.006325 µM): 0.247
- relative viability ([7]; first compound 0.02 µM): 0.202
- relative viability ([8]; first compound 0.0002 µM): 0.573
- relative viability ([8]; first compound 0.000632 µM): 0.482
- relative viability ([8]; first compound 0.002 µM): 0.307
- relative viability ([8]; first compound 0.006325 µM): 0.35
- relative viability ([8]; first compound 0.02 µM): 0.242
- relative viability ([9]; first compound 0.0002 µM): 0.353
- relative viability ([9]; first compound 0.000632 µM): 0.26
- relative viability ([9]; first compound 0.002 µM): 0.228
- relative viability ([9]; first compound 0.006325 µM): 0.197
- relative viability ([9]; first compound 0.02 µM): 0.144
- relative viability ([10]; first compound 0.0002 µM): 0.654
- relative viability ([10]; first compound 0.000632 µM): 0.364
- relative viability ([10]; first compound 0.002 µM): 0.33
- relative viability ([10]; first compound 0.006325 µM): 0.288
- relative viability ([10]; first compound 0.02 µM): 0.235
- relative viability ([11]; first compound 0.0002 µM): 0.331
- relative viability ([11]; first compound 0.000632 µM): 0.422
- relative viability ([11]; first compound 0.002 µM): 0.259
- relative viability ([11]; first compound 0.006325 µM): 0.16
- relative viability ([11]; first compound 0.02 µM): 0.134
- relative viability ([12]; first compound 0.0002 µM): 0.283
- relative viability ([12]; first compound 0.000632 µM): 0.285
- relative viability ([12]; first compound 0.002 µM): 0.241
- relative viability ([12]; first compound 0.006325 µM): 0.181
- relative viability ([12]; first compound 0.02 µM): 0.165
- relative viability ([13]; first compound 0.0002 µM): 0.66
- relative viability ([13]; first compound 0.000632 µM): 0.479
- relative viability ([13]; first compound 0.002 µM): 0.217
- relative viability ([13]; first compound 0.006325 µM): 0.16
- relative viability ([13]; first compound 0.02 µM): 0.11
- relative viability ([14]; first compound 0.0002 µM): 0.431
- relative viability ([14]; first compound 0.000632 µM): 0.386
- relative viability ([14]; first compound 0.002 µM): 0.252
- relative viability ([14]; first compound 0.006325 µM): 0.275
- relative viability ([14]; first compound 0.02 µM): 0.198
- relative viability ([15]; first compound 0.0002 µM): 0.738
- relative viability ([15]; first compound 0.000632 µM): 0.23
- relative viability ([15]; first compound 0.006325 µM): 0.0795
- relative viability ([15]; first compound 0.02 µM): 0.0599
- relative viability ([16]; first compound 0.0002 µM): 0.718
- relative viability ([16]; first compound 0.000632 µM): 0.706
- relative viability ([16]; first compound 0.002 µM): 0.433
- relative viability ([16]; first compound 0.006325 µM): 0.316
- relative viability ([16]; first compound 0.02 µM): 0.272
- relative viability ([17]; first compound 0.0002 µM): 0.627
- relative viability ([17]; first compound 0.000632 µM): 0.783
- relative viability ([17]; first compound 0.002 µM): 0.38
- relative viability ([17]; first compound 0.006325 µM): 0.14
- relative viability ([17]; first compound 0.02 µM): 0.0753
- relative viability ([18]; first compound 0.0002 µM): 0.767
- relative viability ([18]; first compound 0.000632 µM): 0.861
- relative viability ([18]; first compound 0.002 µM): 0.311
- relative viability ([18]; first compound 0.006325 µM): 0.162
- relative viability ([18]; first compound 0.02 µM): 0.114
- relative viability ([19]; first compound 0.0002 µM): 0.715
- relative viability ([19]; first compound 0.000632 µM): 0.689
- relative viability ([19]; first compound 0.002 µM): 0.444
- relative viability ([19]; first compound 0.006325 µM): 0.147
- relative viability ([19]; first compound 0.02 µM): 0.116
- relative viability ([20]; first compound 0.0002 µM): 0.715
- relative viability ([20]; first compound 0.000632 µM): 0.79
- relative viability ([20]; first compound 0.002 µM): 0.738
- relative viability ([20]; first compound 0.006325 µM): 0.699
- relative viability ([20]; first compound 0.02 µM): 0.541
- relative viability ([21]; first compound 0.0002 µM): 0.473
- relative viability ([21]; first compound 0.000632 µM): 0.301
- relative viability ([21]; first compound 0.006325 µM): 0.188
- relative viability ([21]; first compound 0.02 µM): 0.115
- relative viability ([22]; first compound 0.0002 µM): 0.282
- relative viability ([22]; first compound 0.000632 µM): 0.275
- relative viability ([22]; first compound 0.002 µM): 0.227
- relative viability ([22]; first compound 0.006325 µM): 0.181
- relative viability ([22]; first compound 0.02 µM): 0.15
